Test results published in BindingDB's records for doi:10.1016/j.bioorg.2016.05.004 (Universidade De Evora, 2016).

Columns and labels:
Acetylcholinesterase = Acetylcholinesterase (Electrophorus electricus, UniProt O42275); assay: EeAChE Inhibition Assay
Experimental: The inhibition assay of these compounds for AChE (electrophorus electricus) and BuChE (equine serum) were determined by the spectroscopic method described by Ellman et al. which was adapted for 96-well microplates. 25 The standard compound used was galantamine. A 75 μL of different concentrations of the sample was dissolved in buffer with a maximum of 10% DMSO, 25 μL of ATCI (15 mM), and 125 μL of DTNB 3 mM were added to the wells followed by 25 μL of 0.3 U/mL AChE. The velocity was measured by the increase in the absorbance at 405 nm during 1 min time interval at 25 C in a BIO-TEK ELX800G microplate reader (using Gen5 v.1.05 software).

[1] = target: Carboxylic ester hydrolase (Equus caballus, UniProt Q9N1N9); assay: EqBuChE Inhibition Assay
Sequence of Carboxylic ester hydrolase (Q9N1N9 whole entry): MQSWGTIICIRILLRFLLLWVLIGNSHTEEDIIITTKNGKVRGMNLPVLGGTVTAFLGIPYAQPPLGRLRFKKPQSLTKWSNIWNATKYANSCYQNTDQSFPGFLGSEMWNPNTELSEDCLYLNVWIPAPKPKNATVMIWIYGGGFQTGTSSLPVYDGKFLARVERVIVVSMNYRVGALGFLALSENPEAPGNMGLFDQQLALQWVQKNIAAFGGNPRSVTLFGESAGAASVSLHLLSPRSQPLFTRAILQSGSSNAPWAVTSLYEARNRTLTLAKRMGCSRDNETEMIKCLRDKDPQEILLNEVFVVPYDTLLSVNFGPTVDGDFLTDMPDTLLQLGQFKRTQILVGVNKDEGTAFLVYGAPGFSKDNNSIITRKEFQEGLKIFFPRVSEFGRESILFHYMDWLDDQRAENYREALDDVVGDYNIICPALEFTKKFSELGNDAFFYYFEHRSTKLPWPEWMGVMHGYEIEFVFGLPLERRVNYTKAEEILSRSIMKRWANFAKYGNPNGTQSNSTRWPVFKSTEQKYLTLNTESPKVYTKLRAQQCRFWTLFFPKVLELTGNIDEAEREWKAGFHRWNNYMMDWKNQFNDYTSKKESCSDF
Experimental: The in vitro BuChE assay was performed similarly to the method described above. A standard enzyme activity curve was drawn for each enzyme using seven different concentrations ranging from 0.1 U/mL to 1 U/mL and enzyme activity was calculated (one unit of enzyme will hydrolyze 1.0 μmol of acetylthiocholine to thiocholine and acetate per minute). Inhibitory activity was calculated from 100 subtracted by the percentage of enzyme activity.

Sequence of Acetylcholinesterase (O42275 whole entry): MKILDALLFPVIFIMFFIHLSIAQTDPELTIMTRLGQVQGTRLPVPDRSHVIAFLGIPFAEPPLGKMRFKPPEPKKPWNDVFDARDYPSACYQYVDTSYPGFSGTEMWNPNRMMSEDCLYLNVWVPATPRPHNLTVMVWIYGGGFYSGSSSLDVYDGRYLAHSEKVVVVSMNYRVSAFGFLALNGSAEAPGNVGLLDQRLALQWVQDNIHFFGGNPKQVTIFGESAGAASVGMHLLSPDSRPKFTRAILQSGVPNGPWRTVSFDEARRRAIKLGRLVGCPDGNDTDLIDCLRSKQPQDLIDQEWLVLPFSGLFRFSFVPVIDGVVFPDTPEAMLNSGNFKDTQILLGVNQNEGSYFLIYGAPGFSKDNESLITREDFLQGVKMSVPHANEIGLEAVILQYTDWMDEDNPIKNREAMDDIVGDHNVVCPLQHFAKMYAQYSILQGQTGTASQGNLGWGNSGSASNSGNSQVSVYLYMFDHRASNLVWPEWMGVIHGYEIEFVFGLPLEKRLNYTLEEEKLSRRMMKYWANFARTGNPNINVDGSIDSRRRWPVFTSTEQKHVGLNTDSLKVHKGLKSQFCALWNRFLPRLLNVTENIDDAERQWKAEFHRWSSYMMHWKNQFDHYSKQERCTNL

| SMILES | IC50 (Acetylcholinesterase) [µM] | IC50 [1] [µM] |
| --- | --- | --- |
| O=C1NCC(O)c2ccccc21 (stereo unspecified) [Isoquinolin-1(2H)-ones, 1a] | 136 | 807 |
| Cc1ccc2c(c1)C(=O)NCC2O (stereo unspecified) [Isoquinolin-1(2H)-ones, 1b] | > 1500 | 352 |
| Cc1ccc2c(c1)C(O)CNC2=O (stereo unspecified) [Isoquinolin-1(2H)-ones, 1c] | > 1500 | > 1500 |
| O=C1NCC(O)c2cc(Cl)ccc21 (stereo unspecified) [Isoquinolin-1(2H)-ones, 1d] | > 1500 | 226 |
| COc1ccc2c(c1)C(=O)NCC2O (stereo unspecified) [Isoquinolin-1(2H)-ones, 1e] | 311 | > 1500 |
| COC1CNC(=O)c2ccccc21 (stereo unspecified) [Isoquinolin-1(2H)-ones, 1f] | 89.5 | 154 |
| Cc1ccc2c(c1)C(=O)NCCC2O (stereo unspecified) [Isoquinolin-1(2H)-ones, 2b] | 536 | 108 |
| O=C1NCCC(O)c2ncccc21 (stereo unspecified) [Isoquinolin-1(2H)-ones, 4a] | 550 | > 1500 |
| Cc1ccc2c(n1)C(O)CCNC2=O (stereo unspecified) [Isoquinolin-1(2H)-ones, 4b] | > 1500 | > 1500 |
| O=C1NCC(O)c2ccsc21 (stereo unspecified) [Isoquinolin-1(2H)-ones, 5] | 1370 | > 1500 |
| COc1ccc2c3c1O[C@H]1C[C@@H](O)C=C[C@@]31CCN(C)C2 [galantamine] |  | 61.9 |
